Reference: patent publication US7659244B2, “Rapamycin peptides conjugates: synthesis and uses thereof” (Quest Pharmatech, Inc., priority 2004, dated 2010)
Read-outs that look alike come from different tables or passages of the source.

Experiments:
[1] = read-out: Inhibition of H^3 Thymidine uptake (IC50 in nM), MCF-7 cells, 96 hours incubation
[2] = read-out: Inhibition of H^3 Thymidine uptake (IC50 in nM), OVCAR-3 cells, 96 hours incubation
[3] = read-out: Inhibition of H^3 Thymidine uptake (IC50 in nM), SKMEL-2 cells, 96 hours incubation
[4] = read-out: Inhibition of H^3 Thymidine uptake (IC50 in nM), Lncap cells, 96 hours incubation
[5] = read-out: Inhibition of H^3 Thymidine uptake (IC50 in nM), A431 cells, 96 hours incubation
[6] = read-out: Inhibition of H^3 Thymidine uptake (IC50 in nM), SK-N-SH cells, 96 hours incubation
[7] = read-out: Inhibition of H^3 Thymidine uptake (IC50 in nM), D341 cells, 96 hours incubation
[8] = read-out: Inhibition of H^3 Thymidine uptake (IC50 in nM), SKOV-3 cells, 96 hours incubation
[9] = read-out: Inhibition of H^3 Thymidine uptake (IC50 in nM), LS174T cells, 96 hours incubation

| IC50 (MCF-7; 96 h) [nM] | IC50 (LS174T; 96 h) [nM] | IC50 (SKMEL-2; 96 h) [nM] | IC50 (D341; 96 h) [nM] | IC50 (SKOV-3; 96 h) [nM] | IC50 (OVCAR-3; 96 h) [nM] | IC50 (Lncap; 96 h) [nM] | IC50 (A431; 96 h) [nM] | IC50 (SK-N-SH; 96 h) [nM] | Compound | IC50 (MCF-7; [1]) [nM] | IC50 (OVCAR-3; [2]) [nM] | IC50 (SKMEL-2; [3]) [nM] | IC50 (Lncap; [4]) [nM] | IC50 (A431; [5]) [nM] | IC50 (SK-N-SH; [6]) [nM] | IC50 (D341; [7]) [nM] | IC50 (SKOV-3; [8]) [nM] | IC50 (LS174T; [9]) [nM] |
| --- | --- | --- | --- | --- | --- | --- | --- | --- | --- | --- | --- | --- | --- | --- | --- | --- | --- | --- |
|  |  |  |  |  |  |  |  |  | CO[C@H]1C[C@@H]2CC[C@@H](C)[C@@](O)(O2)C(=O)C(=O)N2CCCC[C@H]2C(=O)O[C@H]([C@H](C)C[C@@H]2CC[C@@H](OC(=O)N[C@H](CO)Cc3ccccc3)[C@H](OC)C2)CC(=O)[C@H](C)/C=C(\C)[C@@H](O)[C@@H](OC)C(=O)[C@H](C)C[C@H](C)/C=C/C=C/C=C/1C [Compound 7j, Rapamycin-42-O-ester-(S) (−)-2-amino-3-phenyl-1-propanol] | 15.3 | 264 | 157 | 166 | 506 | 80 | 106 | 55.9 |  |
|  |  |  |  |  |  |  |  |  | CO[C@H]1C[C@@H]2CC[C@@H](C)[C@@](O)(O2)C(=O)C(=O)N2CCCC[C@H]2C(=O)O[C@H]([C@H](C)C[C@@H]2CC[C@@H](OC(=O)CCC(=O)N[C@H](CO)Cc3ccccc3)[C@H](OC)C2)CC(=O)[C@H](C)/C=C(\C)[C@@H](O)[C@@H](OC)C(=O)[C@H](C)C[C@H](C)/C=C/C=C/C=C/1C [Compound 7v, Rapamycin-42-O-(3-carboxypropanoyl) ester-(S) (−)-2-amino-3-phenyl-1-propanol] | 5.52 | 95.5 | 81 | 48.3 | 1030 | 18.8 | 15 | 10.4 |  |
|  |  |  |  |  |  |  |  |  | CO[C@H]1C[C@@H]2CC[C@@H](C)[C@@](O)(O2)C(=O)C(=O)N2CCCC[C@H]2C(=O)O[C@H]([C@H](C)C[C@@H]2CC[C@@H](OC(=O)N[C@H](CO)[C@@H](C)O)[C@H](OC)C2)CC(=O)[C@H](C)/C=C(\C)[C@@H](O)[C@@H](OC)C(=O)[C@H](C)C[C@H](C)/C=C/C=C/C=C/1C [Compound 7r, Rapamycin-42-O-ester-(2R,3R)-2-amino-1,3-butanediol] | 1.86 | 47.2 | 8.32 | 21.8 | 191 | 4.84 | 5.5 | 6.44 | 1410 |
|  |  |  |  |  |  |  |  |  | CO[C@H]1C[C@@H]2CC[C@@H](C)[C@@](O)(O2)C(=O)C(=O)N2CCCC[C@H]2C(=O)O[C@H]([C@H](C)C[C@@H]2CC[C@@H](OC(=O)NCC(O)CO)[C@H](OC)C2)CC(=O)[C@H](C)/C=C(\C)[C@@H](O)[C@@H](OC)C(=O)[C@H](C)C[C@H](C)/C=C/C=C/C=C/1C (stereo partly shown) [Compound 7n, Rapamycin-42-O-ester-3-amino-1,2-propanediol] | 2.53 | 71.9 | 11.7 | 42.7 | 314 | 7.27 | 14.7 | 7.96 | 55100 |
|  |  |  |  |  |  |  |  |  | CO[C@H]1C[C@@H]2CC[C@@H](C)[C@@](O)(O2)C(=O)C(=O)N2CCCC[C@H]2C(=O)O[C@H]([C@H](C)C[C@@H]2CC[C@@H](OC(=O)NC(CO)CO)[C@H](OC)C2)CC(=O)[C@H](C)/C=C(\C)[C@@H](O)[C@@H](OC)C(=O)[C@H](C)C[C@H](C)/C=C/C=C/C=C/1C [Compound 7o, Rapamycin-42-O-ester-2-amino-1,3-propanediol] | 2.58 | 80.7 | 48.3 | 39.6 | 150 | 5.84 | 36.2 | 27.4 | 1030 |
|  |  |  |  |  |  |  |  |  | CO[C@H]1C[C@@H]2CC[C@@H](C)[C@@](O)(O2)C(=O)C(=O)N2CCCC[C@H]2C(=O)O[C@H]([C@H](C)C[C@@H]2CC[C@@H](OC(=O)NC(C)(CO)CO)[C@H](OC)C2)CC(=O)[C@H](C)/C=C(\C)[C@@H](O)[C@@H](OC)C(=O)[C@H](C)C[C@H](C)/C=C/C=C/C=C/1C [Compound 7p, Rapamycin-42-O-ester-2-amino-2-methyl-1,3-propanediol] | 1.17 | 79.3 | 17.7 | 7.12 | 254 | 7.19 | 10.2 | 8.8 | 2310 |
|  |  |  |  |  |  |  |  |  | CO[C@H]1C[C@@H]2CC[C@@H](C)[C@@](O)(O2)C(=O)C(=O)N2CCCC[C@H]2C(=O)O[C@H]([C@H](C)C[C@@H]2CC[C@@H](OC(=O)N[C@@H](CO)[C@@H](O)c3ccccc3)[C@H](OC)C2)CC(=O)[C@H](C)/C=C(\C)[C@@H](O)[C@@H](OC)C(=O)[C@H](C)C[C@H](C)/C=C/C=C/C=C/1C [Compound 7l, Rapamycin-42-O-ester-(1S,2S)-(+)-2-amino-1-phenyl-1,3-propandiol] | 6.35 | 113 | 29.1 | 64.6 | 217 | 15.6 | 27.6 | 17.1 | 23500 |
|  |  |  |  |  |  |  |  |  | CO[C@H]1C[C@@H]2CC[C@@H](C)[C@@](O)(O2)C(=O)C(=O)N2CCCC[C@H]2C(=O)O[C@H]([C@H](C)C[C@@H]2CC[C@@H](OC(=O)NC3C(=O)OC(C)(C)OC3=O)[C@H](OC)C2)CC(=O)[C@H](C)/C=C(\C)[C@@H](O)[C@@H](OC)C(=O)[C@H](C)C[C@H](C)/C=C/C=C/C=C/1C [Compound 7x] | 7.09 |  | 113 | 3.32 |  | 11.3 |  | 3.4 | 433 |
| 2440 | 3680 | 946 | 937 | 595 |  |  |  |  | CC[C@H](C)[C@H](NC(=O)[C@H](CC(C)C)NC(=O)[C@H](C)NC(=O)[C@@H](Cc1cn(C(c2ccccc2)(c2ccccc2)c2ccccc2)cn1)NC(=O)O[C@@H]1CC[C@@H](C[C@@H](C)[C@@H]2CC(=O)[C@H](C)/C=C(\C)[C@@H](O)[C@@H](OC)C(=O)[C@H](C)C[C@H](C)/C=C/C=C/C=C(\C)[C@@H](OC)C[C@@H]3CC[C@@H](C)[C@@](O)(O3)C(=O)C(=O)N3CCCC[C@H]3C(=O)O2)C[C@H]1OC)C(=O)N[C@@H](CO)Cc1ccccc1 [Compound 7g] |  |  |  |  |  |  |  |  |  |
| 52.2 |  | 358 | 140 | 94.3 | 343 | 198 | 12700 | 137 | CC[C@H](C)[C@H](NC(=O)[C@@H](CC(C)C)NC(=O)O[C@@H]1CC[C@@H](C[C@@H](C)[C@@H]2CC(=O)[C@H](C)/C=C(\C)[C@@H](O)[C@@H](OC)C(=O)[C@H](C)C[C@H](C)/C=C/C=C/C=C(\C)[C@@H](OC)C[C@@H]3CC[C@@H](C)[C@@](O)(O3)C(=O)C(=O)N3CCCC[C@H]3C(=O)O2)C[C@H]1OC)C(=O)N[C@H](CO)Cc1ccccc1 [Compound 7d, Rapamycin-42-O-ester-(NH-D-Leu-L-Ile-S-Phe-CH2OH)] |  |  |  |  |  |  |  |  |  |
|  |  |  |  |  |  |  |  |  | COC1CC2CCC(C)C(O)(O2)C(=O)C(=O)N2CCCCC2C(=O)OC(C(C)CC2CCC(OC(=O)NC(CO)CC(C)C)C(OC)C2)CC(=O)C(C)C=C(C)C(O)C(OC)C(=O)C(C)CC(C)C=CC=CC=C1C [Compound 7s, Rapamycin-42-O-ester-(R)-(−)-2-amino-4-methyl pentanol] | 15.6 | 355 | 154 | 189 | 625 | 97.3 | 103 | 93.6 |  |
|  |  |  |  |  |  |  |  |  | COC(=O)C(NC(=O)O[C@@H]1CC[C@@H](C[C@@H](C)[C@@H]2CC(=O)[C@H](C)/C=C(\C)[C@@H](O)[C@@H](OC)C(=O)[C@H](C)C[C@H](C)/C=C/C=C/C=C(\C)[C@@H](OC)C[C@@H]3CC[C@@H](C)[C@@](O)(O3)C(=O)C(=O)N3CCCC[C@H]3C(=O)O2)C[C@H]1OC)C(=O)OC [Compound 7w] | 103 |  | 378 | 83.5 |  | 164 |  | 26.5 | 859 |
